In patent US20240360194A1, “New Peptides as Potent and Selective GIP Receptor Agonists” (Sanofi, priority 2021, published 2024):
≈ marks a conversion by molar mass, not a printed value. Where two headings read alike, the source gives them in different places.

Columns and labels:
[1] = molecular target: T1, human GIP receptor (hGIPR) (Homo sapiens, UniProt P48546); assay: In vitro cellular cAMP assay for GIP receptor efficacy (HEK-293 cell line over-expressing receptor); type: cell-based
T1 sequence (P48546 22-466): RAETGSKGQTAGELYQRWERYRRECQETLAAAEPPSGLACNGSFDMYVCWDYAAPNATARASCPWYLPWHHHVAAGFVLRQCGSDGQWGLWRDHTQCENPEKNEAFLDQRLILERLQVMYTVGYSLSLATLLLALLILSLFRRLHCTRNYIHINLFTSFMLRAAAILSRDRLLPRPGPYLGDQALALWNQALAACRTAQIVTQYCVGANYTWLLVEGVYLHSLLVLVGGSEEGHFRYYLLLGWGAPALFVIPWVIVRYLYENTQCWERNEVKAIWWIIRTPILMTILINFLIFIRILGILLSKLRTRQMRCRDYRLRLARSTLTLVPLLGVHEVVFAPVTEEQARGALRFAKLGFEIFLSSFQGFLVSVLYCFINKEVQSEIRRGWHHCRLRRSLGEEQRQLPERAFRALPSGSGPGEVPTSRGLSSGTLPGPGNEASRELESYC

[2] = molecular target: T2, human GLP-1 receptor (hGLP-1R) (Homo sapiens, UniProt P43220); assay: Binding assay, displacement of [125I]GLP-1 from HEK-293 membranes over-expressing GLP-1R (SPA); details: [125I]GLP-1 displacement
T2 sequence (P43220 24-463): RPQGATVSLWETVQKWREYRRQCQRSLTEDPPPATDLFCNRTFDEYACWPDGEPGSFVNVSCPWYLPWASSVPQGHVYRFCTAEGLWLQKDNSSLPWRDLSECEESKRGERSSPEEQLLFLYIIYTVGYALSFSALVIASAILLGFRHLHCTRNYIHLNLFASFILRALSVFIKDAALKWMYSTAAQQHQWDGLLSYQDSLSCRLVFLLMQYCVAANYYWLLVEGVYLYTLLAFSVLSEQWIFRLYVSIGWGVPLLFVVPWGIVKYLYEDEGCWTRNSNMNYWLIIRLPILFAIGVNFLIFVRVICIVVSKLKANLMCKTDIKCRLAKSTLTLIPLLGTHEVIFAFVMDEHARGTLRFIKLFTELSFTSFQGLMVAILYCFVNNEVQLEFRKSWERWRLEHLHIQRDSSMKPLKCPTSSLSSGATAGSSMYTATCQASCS
Description: (1) Preparation of Membranes from HEK-293 Cells Over-Expressing GIPR or GLP-1R
HEK-293 cells recombinantly over-expressing GIPR or GLP-1R were grown to 50% confluency, washed with warm 1×PBS (Gibco) and detached in HEPES/EDTA-buffer (100 mM HEPES pH 7.5, 5 mM EDTA). Cells were harvested by centrifugation at 4° C. and 3000×g and the pellets were stored at −80° C. until further processing.
After thawing on ice, pellets were resuspended in HEPES/EDTA-buffer and homogenized on ice for 1 min using Ultra-Turray T25. After subsequent sonification the cell debris was removed by centrifugation at 1000×g and 4° C. Supernatants were then ultra-centrifuged at 100000×g and 4° C. under vacuum for 30 min. Pellets were resuspended in HEPES/EDTA/NaCl-buffer (20 mM HEPES, 1 mM EDTA, 150 mM NaCl; add 1 Complete Mini Protease inhibitor cocktail to 10 ml buffer) and protein content was determined via BCA-Protein assay.
(2) Measurement of Binding Activity of Test Compounds to Human GIPR or GLP-1R

[3] = Solubility assessment (UHPLC-UV of supernatant, target 10 mg/ml); type: physicochemical; details: for solubility at 24 h: read-out: Soluble amount
How it was run: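 Peptides at 10 mg/ml (purity-corrected) in 100 mM phosphate pH 7.4, optionally with 2.7 mg/ml m-cresol; gentle agitation 1 h, then 5° C. overnight (24 h). Supernatant after 15 min centrifugation at 2500 RCF quantified by UHPLC-UV, with sequence-based extinction coefficients.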

[4] = molecular target: T3, human GIP receptor (Homo sapiens, UniProt P48546); assay: In vitro cellular cAMP assay for GIP receptor efficacy (human adipocytes); type: cell-based; details: for EC50: read-out: hGIPR EC50; for Emax: read-out: hGIPR Emax
T3 construct: human adipocytes endogenously expressing the human GIP receptor; host or cells: human preadipocytes (Lonza) differentiated to adipocytes
T3 sequence (P48546 22-466): T1 sequence (P48546 22-466)
How it was run: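 cAMP is read by HTRF (665/620 nm ratio, 1 h after reagents in lysis buffer) following 30 min compound exposure at room temperature. Cells are human preadipocyte-derived adipocytes, differentiated 6 days with insulin, dexamethasone, IBMX (200 μM), PPARγ agonist and L-thyroxine, seeded 5000 per well.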

[5] = molecular target: T1, human GIP receptor (hGIPR); assay: Binding assay, displacement of [125I]GIP from HEK-293 membranes over-expressing GIPR (SPA); details: [125I]GIP displacement
How it was run: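 Membranes from HEK-293 cells over-expressing human GIPR or GLP-1R, isolated by homogenising, sonicating and ultracentrifuging at 100000×g into HEPES/EDTA/NaCl buffer with protease inhibitors, were used for binding.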

[6] = molecular target: T2, human GLP-1 receptor (hGLP-1R); assay: In vitro cellular cAMP assay for GLP-1 receptor efficacy (HEK-293 cell line over-expressing receptor); type: cell-based; details: HEK-293, 0.1% BSA
[7] = EC50 hGIPR 0.1% BSA, HEK-293, 0.1% BSA
[8] = 100 mM phosphate buffer pH 7.4 (solubility buffer system A), pH 7.4, Solubility buffer system A: 100 mM phosphate buffer pH 7.4
[9] = pH 7.4, Solubility buffer system C: 100 mM phosphate buffer pH 7.4, 2.7 mg/ml m-cresol

EC50 [1, 7] [nM]	IC50 [2] [nM]	solubility at 24 h [3, 8] [µg/mL]	solubility at 24 h [3, 9] [µg/mL]	EC50 [4] [nM]	Emax [4] [%]	IC50 [5] [nM]	EC50 [6] [nM]	EC50 ([1]; HEK-293, without albumin (0% HSA), read-out: EC50 hGIPR 0% HSA) [nM]	solubility ([3]; pH 7.4, Soluble amount) [µg/mL]	Structure (SMILES)
0.00964	106	9100 (≈ 2160 µM)	4000 (≈ 949 µM)	0.4	121	0.1	> 10			CC[C@H](C)[C@H](NC(=O)[C@H](CCCNC(=N)N)NC(=O)[C@H](CC(=O)O)NC(=O)[C@H](CCCCNC(=O)CNC(=O)CNC(=O)CNC(=O)CC[C@H](NC(=O)CCCCCCCCCCCCCCCCC(=O)O)C(=O)O)NC(=O)C(C)(C)NC(=O)[C@@H](NC(=O)[C@H](CO)NC(=O)[C@H](CC(C)C)NC(=O)[C@H](CC(=O)O)NC(=O)[C@H](CO)NC(=O)[C@@H](NC(=O)[C@H](Cc1ccccc1)NC(=O)[C@@H](NC(=O)CNC(=O)[C@H](CCC(=O)O)NC(=O)C(C)(C)NC(=O)[C@@H](N)Cc1ccc(O)cc1)[C@@H](C)O)[C@@H](C)CC)[C@@H](C)CC)C(=O)N[C@@H](Cc1c[nH]cn1)C(=O)N[C@@H](CCC(N)=O)C(=O)NC(C)(C)C(=O)N[C@@H](CCC(=O)O)C(=O)N[C@@H](Cc1ccccc1)C(=O)N[C@H](C(=O)N[C@@H](CCC(=O)O)C(=O)N[C@@H](Cc1c[nH]c2ccccc12)C(=O)N[C@@H](CC(C)C)C(=O)N[C@@H](CC(C)C)C(=O)N[C@@H](C)C(=O)N[C@@H](CCC(N)=O)C(=O)N[C@@H](CCCNC(=N)N)C(=O)NCC(N)=O)[C@@H](C)CC [SEQ ID NO: 7, H2N-Y-Aib-E-G-T-F-I-S-D-L-S-I-Aib-K[{Gly}3-gGlu-C18OH]-D-R-I-H-Q-Aib-E-F-I-E-W-L-L-A-Q-R-G-NH2]
0.0821	935			0.8	110	0.2	> 10	0.00137	7400 (≈ 1700 µM)	CC[C@H](C)[C@H](NC(=O)[C@H](CCCNC(=N)N)NC(=O)[C@H](CC(=O)O)NC(=O)[C@H](CCCCNC(=O)COCCOCCNC(=O)COCCOCCNC(=O)CC[C@H](NC(=O)CCCCCCCCCCCCCCCCC(=O)O)C(=O)O)NC(=O)C(C)(C)NC(=O)[C@@H](NC(=O)[C@H](CO)NC(=O)[C@H](CC(C)C)NC(=O)[C@H](CC(=O)O)NC(=O)[C@H](CO)NC(=O)[C@@H](NC(=O)[C@@](C)(CC)NC(=O)[C@@H](NC(=O)CNC(=O)[C@H](CCC(=O)O)NC(=O)C(C)(C)NC(=O)[C@@H](N)Cc1ccc(O)cc1)[C@@H](C)O)[C@@H](C)CC)[C@@H](C)CC)C(=O)N[C@@H](Cc1c[nH]cn1)C(=O)N[C@@H](CCC(N)=O)C(=O)N[C@@H](CCC(=O)O)C(=O)N[C@@H](CCC(=O)O)C(=O)N[C@@](C)(Cc1ccccc1)C(=O)N[C@H](C(=O)N[C@@H](CCC(=O)O)C(=O)N[C@@H](Cc1c[nH]c2ccccc12)C(=O)N[C@@H](CC(C)C)C(=O)N[C@@H](CC(C)C)C(=O)N[C@@H](C)C(=O)N[C@@H](CCC(N)=O)C(=O)N[C@@H](CCCNC(=N)N)C(=O)NCC(N)=O)[C@@H](C)CC [SEQ ID NO: 17, H2N-Y-Aib-E-G-T-Iva-I-S-D-L-S-I-Aib-K[{AEEA}2-gGlu-C18OH]-D-R-I-H-Q-E-E-Mph-I-E-W-L-L-A-Q-R-G-NH2]
0.00917	224	> 10200	7700 (≈ 1720 µM)	0.8	108	0.6	> 10			CC[C@H](C)[C@H](NC(=O)[C@H](CCCNC(=N)N)NC(=O)[C@H](CC(=O)O)NC(=O)[C@H](CCCCNC(=O)COCCOCCNC(=O)COCCOCCNC(=O)CC[C@H](NC(=O)CC[C@H](NC(=O)CCCCCCCCCCCCCCCCC(=O)O)C(=O)O)C(=O)O)NC(=O)C(C)(C)NC(=O)[C@@H](NC(=O)[C@H](CO)NC(=O)[C@H](CC(C)C)NC(=O)[C@H](CC(=O)O)NC(=O)[C@H](CO)NC(=O)[C@@H](NC(=O)[C@H](Cc1ccccc1)NC(=O)[C@@H](NC(=O)CNC(=O)[C@H](CCC(=O)O)NC(=O)C(C)(C)NC(=O)[C@@H](N)Cc1ccc(O)cc1)[C@@H](C)O)[C@@H](C)CC)[C@@H](C)CC)C(=O)N[C@@H](Cc1c[nH]cn1)C(=O)N[C@@H](CCC(N)=O)C(=O)NC(C)(C)C(=O)N[C@@H](CCC(=O)O)C(=O)N[C@@H](Cc1ccccc1)C(=O)N[C@H](C(=O)N[C@@H](CCC(=O)O)C(=O)N[C@@H](Cc1c[nH]c2ccccc12)C(=O)N[C@@H](CC(C)C)C(=O)N[C@@H](CC(C)C)C(=O)N[C@@H](C)C(=O)N[C@@H](CCC(N)=O)C(=O)N[C@@H](CCCNC(=N)N)C(=O)NCC(N)=O)[C@@H](C)CC [SEQ ID NO: 9, H2N-Y-Aib-E-G-T-F-I-S-D-L-S-I-Aib-K[{AEEA}2-{gGlu}2-C18OH]-D-R-I-H-Q-Aib-E-F-I-E-W-L-L-A-Q-R-G-NH2]
0.0192	97	10700 (≈ 2450 µM)		1.3	113	0.2	> 10			CC[C@H](C)[C@H](NC(=O)[C@H](CCCNC(=N)N)NC(=O)[C@H](CC(=O)O)NC(=O)[C@H](CCCCNC(=O)COCCOCCNC(=O)COCCOCCNC(=O)CC[C@H](NC(=O)CCCCCCCCCCCCCCCCCCC(=O)O)C(=O)O)NC(=O)C(C)(C)NC(=O)[C@@H](NC(=O)[C@H](CO)NC(=O)[C@H](CC(C)C)NC(=O)[C@H](CC(=O)O)NC(=O)[C@H](CO)NC(=O)[C@@H](NC(=O)[C@H](Cc1ccccc1)NC(=O)[C@@H](NC(=O)CNC(=O)[C@H](CCC(=O)O)NC(=O)C(C)(C)NC(=O)[C@@H](N)Cc1ccc(O)cc1)[C@@H](C)O)[C@@H](C)CC)[C@@H](C)CC)C(=O)N[C@@H](Cc1c[nH]cn1)C(=O)N[C@@H](CCC(N)=O)C(=O)NC(C)(C)C(=O)N[C@@H](CCC(=O)O)C(=O)N[C@@H](Cc1ccccc1)C(=O)N[C@H](C(=O)N[C@@H](CCC(=O)O)C(=O)N[C@@H](Cc1c[nH]c2ccccc12)C(=O)N[C@@H](CC(C)C)C(=O)N[C@@H](CC(C)C)C(=O)N[C@@H](C)C(=O)N[C@@H](CCC(N)=O)C(=O)N[C@@H](CCCNC(=N)N)C(=O)NCC(N)=O)[C@@H](C)CC [SEQ ID NO: 11, H2N-Y-Aib-E-G-T-F-I-S-D-L-S-I-Aib-K[{AEEA}2-gGlu-C20OH]-D-R-I-H-Q-Aib-E-F-I-E-W-L-L-A-Q-R-G-NH2]
0.0518	236	5200 (≈ 1180 µM)		2.1	114	0.7	> 10			CC[C@H](C)[C@H](NC(=O)[C@H](Cc1ccccc1)NC(=O)[C@H](CCC(=O)O)NC(=O)[C@H](CCC(=O)O)NC(=O)[C@H](CCC(N)=O)NC(=O)[C@H](Cc1c[nH]cn1)NC(=O)[C@@H](NC(=O)[C@H](CCCNC(=N)N)NC(=O)[C@H](CC(=O)O)NC(=O)[C@H](CCCCNC(=O)COCCOCCNC(=O)COCCOCCNC(=O)CC[C@H](NC(=O)CCCCCCCCCCCCCCCCCCC(=O)O)C(=O)O)NC(=O)C(C)(C)NC(=O)[C@@H](NC(=O)[C@H](CO)NC(=O)[C@H](CC(C)C)NC(=O)[C@H](CC(=O)O)NC(=O)[C@H](CO)NC(=O)[C@@H](NC(=O)[C@H](Cc1ccccc1)NC(=O)[C@@H](NC(=O)CNC(=O)[C@H](CCC(=O)O)NC(=O)C(C)(C)NC(=O)[C@@H](N)Cc1ccc(O)cc1)[C@@H](C)O)[C@@H](C)CC)[C@@H](C)CC)[C@@H](C)CC)C(=O)N[C@@H](CCC(=O)O)C(=O)N[C@@H](Cc1c[nH]c2ccccc12)C(=O)N[C@@H](CC(C)C)C(=O)N[C@@H](CC(C)C)C(=O)N[C@@H](C)C(=O)N[C@@H](CCC(N)=O)C(=O)N[C@@H](CCCNC(=N)N)C(=O)NCC(N)=O [SEQ ID NO: 5, H2N-Y-Aib-E-G-T-F-I-S-D-L-S-I-Aib-K[{AEEA}2-gGlu-C20OH]-D-R-I-H-Q-E-E-F-I-E-W-L-L-A-Q-R-G-NH2]
